US6593306B1, “Methods for modulation and inhibition of telomerase” (Board of Regents, The University of Texas Systems, priority 1995, dated 2003)

Key:
Format in all cases: biochemical
[1] = target: T1, human cancer telomerase (Homo sapiens, UniProt O14746); assay: Nucleoside triphosphate as telomerase substrate, dGTP replaced in modified reaction; conditions: modified assay; 1 mM dTTP, 3.12 μM [α-32P]dATP
T1 construct: endogenous in cells; host or cells: human cancer cells

[2] = target: T2, human 293 cell telomerase (Homo sapiens, UniProt O14746); assay: Modified telomerase assay (32P-dATP as radiolabeled substrate); conditions: for Inhibition of 293 cell telomerase, modified assay: competing radioactive nucleotide 3.12 μM [α32P]dATP
T2 construct: with 20 μl of S100 enzyme extract; endogenous in cells; host or cells: 293 cells (transformed human embryonic kidney), S100 extract
T2 sequence (O14746 whole entry): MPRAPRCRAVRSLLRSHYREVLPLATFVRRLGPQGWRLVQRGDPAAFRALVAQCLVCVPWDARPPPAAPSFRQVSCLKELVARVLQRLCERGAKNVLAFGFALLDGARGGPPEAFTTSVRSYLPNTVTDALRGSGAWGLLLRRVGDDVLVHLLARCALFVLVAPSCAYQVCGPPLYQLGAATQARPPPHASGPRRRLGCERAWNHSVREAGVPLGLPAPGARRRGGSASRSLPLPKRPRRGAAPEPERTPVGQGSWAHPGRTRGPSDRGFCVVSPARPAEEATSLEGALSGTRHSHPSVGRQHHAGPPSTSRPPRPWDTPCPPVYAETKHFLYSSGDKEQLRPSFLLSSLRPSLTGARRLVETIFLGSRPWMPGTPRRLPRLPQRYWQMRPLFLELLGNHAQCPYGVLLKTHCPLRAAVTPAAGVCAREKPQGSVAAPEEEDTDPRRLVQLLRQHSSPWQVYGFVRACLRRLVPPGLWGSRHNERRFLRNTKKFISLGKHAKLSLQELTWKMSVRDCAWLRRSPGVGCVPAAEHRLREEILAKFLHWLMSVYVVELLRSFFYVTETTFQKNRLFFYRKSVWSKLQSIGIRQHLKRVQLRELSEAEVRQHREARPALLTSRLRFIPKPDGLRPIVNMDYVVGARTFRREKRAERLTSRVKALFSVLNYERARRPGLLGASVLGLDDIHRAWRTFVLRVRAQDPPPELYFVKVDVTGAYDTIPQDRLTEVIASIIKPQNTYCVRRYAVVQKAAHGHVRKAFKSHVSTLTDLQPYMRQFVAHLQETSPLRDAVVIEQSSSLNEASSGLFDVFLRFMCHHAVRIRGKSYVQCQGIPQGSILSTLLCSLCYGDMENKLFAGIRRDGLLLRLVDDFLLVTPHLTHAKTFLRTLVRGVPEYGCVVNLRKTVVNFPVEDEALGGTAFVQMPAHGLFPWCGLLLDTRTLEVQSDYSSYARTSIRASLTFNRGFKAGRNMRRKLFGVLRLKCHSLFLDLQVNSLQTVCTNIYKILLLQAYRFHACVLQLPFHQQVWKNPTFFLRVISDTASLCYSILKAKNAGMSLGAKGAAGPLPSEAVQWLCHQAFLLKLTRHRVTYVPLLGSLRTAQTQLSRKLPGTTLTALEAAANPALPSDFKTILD
T2 sequence (O60832 whole entry partner): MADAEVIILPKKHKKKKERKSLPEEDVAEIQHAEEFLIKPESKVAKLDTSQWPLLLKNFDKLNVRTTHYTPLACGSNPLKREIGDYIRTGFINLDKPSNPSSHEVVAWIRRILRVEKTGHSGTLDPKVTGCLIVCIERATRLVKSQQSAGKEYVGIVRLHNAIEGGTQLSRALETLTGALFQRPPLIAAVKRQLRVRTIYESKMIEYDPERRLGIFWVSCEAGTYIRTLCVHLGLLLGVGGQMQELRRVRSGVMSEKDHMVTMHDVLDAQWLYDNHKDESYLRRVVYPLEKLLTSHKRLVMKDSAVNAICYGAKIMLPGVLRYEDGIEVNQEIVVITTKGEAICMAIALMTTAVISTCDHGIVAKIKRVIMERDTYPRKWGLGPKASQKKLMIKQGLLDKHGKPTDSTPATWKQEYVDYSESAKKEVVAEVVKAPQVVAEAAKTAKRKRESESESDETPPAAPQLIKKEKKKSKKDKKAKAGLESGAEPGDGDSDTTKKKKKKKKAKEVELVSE
T2 sequence (Q9NPE3 whole entry partner): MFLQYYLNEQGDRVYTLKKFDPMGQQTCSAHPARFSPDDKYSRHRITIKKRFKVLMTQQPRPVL
T2 sequence (Q9NX24 whole entry partner): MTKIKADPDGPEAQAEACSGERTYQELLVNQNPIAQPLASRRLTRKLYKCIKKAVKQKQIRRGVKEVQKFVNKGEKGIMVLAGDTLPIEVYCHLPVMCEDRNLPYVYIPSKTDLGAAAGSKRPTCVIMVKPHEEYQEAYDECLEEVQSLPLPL
T2 sequence (Q9NY12 whole entry partner): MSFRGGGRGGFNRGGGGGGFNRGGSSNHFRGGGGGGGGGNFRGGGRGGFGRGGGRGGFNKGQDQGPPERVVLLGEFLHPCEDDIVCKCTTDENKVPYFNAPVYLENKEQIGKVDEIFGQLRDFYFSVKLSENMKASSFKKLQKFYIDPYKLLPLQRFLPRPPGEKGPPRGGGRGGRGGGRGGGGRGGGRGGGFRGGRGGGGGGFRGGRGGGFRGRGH
Protocol: (§1) Telomerase was prepared from transformed human embryonic kidney 293 cell line. Human embryonic kidney 293 cells were grown in Joklik's modified MEM niedium (Sigma, St Louis, Mo.) supplemented with 5% fetal bovine serum at 37° C. in a humidified atmosphere with 5% CO2. The cells were subcultured at 1-2×10^5 cells/ml twice a week. When the cells grew to approximately 1×10^6 cells/ml, the cells (˜2×10^9 cells) were centrifuged and transferred into polypropylene centrifuge (50 ml) tubes and kept on ice. The cells were then centrifuged in a (Beckman GS-6R) centrifuge at 1200 RPM for 10 minutes at 4° C., and resuspended in PBS. The washed cells were resuspended in 15 ml Hypobuffer Mix (10 mM HEPES, pH 8.0, 3 mM KCl, 1 mM MgCl2, 1 mM dithiothreitol, 1 μM leupeptin, 0.1 mM PMSF, 10 μM pepstatin, 0.83 μg/ml chymostatin, 0.83 μg/ml antipain, and 43.2 units/ml RNase Guard) and centrifuged. The cell pellets were resuspended in 0.75×volumes Hypobuffer [Hypobuffer Mix+40 units/ml RNase Guard (Pharmacia, N.J.) to allow the cells to swell. The cell suspensions were homogenized to allow the telomerase to “leak” into the cytosolic fraction. The lysate was then poured into new, autoclaved, 3 ml polyallomer ultracentrifuge tubes and centrifuged at 100,000×g for 1 hour at 4° C. A top lipid layer was carefully removed and discarded, and the supernatant was collected. 1/50 of the volume of 5 M NaCl was added to the clear supernatant fluid to achieve a final concentration of 0.1 M. Sterile glycerol was added until the final glycerol concentration was 20%. The enzyme solution was aliquoted into Eppendorf tubes and quickly frozen in liquid nitrogen and stored at −70° C.
In the conventional telomerase assay, the concentrations of both non-radiolabeled nucleotides, dATP and dTTP, are 1 mM, and the concentration of the radiolabeled [^32P]dGTP is 1.56 μM. Because of the high concentration of dATP and dTTP, the standard assay may not be suitable for determining the potential telomerase inhibition of any “Adenine or Thymine” analogs. […] All other chemicals and reaction conditions are identical to the conventional assay.

[3] = target: T2, human 293 cell telomerase; assay: Conventional telomerase assay (32P-dGTP as radiolabel substrate); conditions: for Inhibition of 293 Telomerase, Conventional Assay *dGTP: up to 2 mM
Protocol: as §1
The assay is based on the ability of the telomerase enzyme in the S100 fractions to recognize an 18-base DNA primer with the DNA sequence (TTAGGG)3. DNA polymerization initiates from the 3′-OH group of the oligonucleotide. By reading from its complementary internal RNA template, telomerase adds a repeated set of 5′-TTAGGG-3′ to the original 18-base primer. Non-synchronous “starts” and “terminations” among the different enzyme complexes result in a degenerative set of different length DNA primers occurring in 6-base increments. Incorporation of [α-^32P]dGTP at the guanine positions of the 5′-TTAGGG-3′ sequence allows the newly synthesized DNA fragments to be visualized by autoradiography. The resulting image forms the characteristic “ladder” structure that is used to identify telomerase activity. The images are scanned using a phosphoimager or laser densitometer (Molecular Dynamics, Sunnyvale, Calif.). Comparisons of the total volumes under the corresponding peaks are used to quantitate the total amount of [α-^32P] incorporated in the primer extension reaction.
The telomerase assay was initiated by mixing 20 μl of 2×reaction mix (100 mM Tris-OAc, pH 8.5, 100 mM KOAc, 10 mM β-mercaptoethanol, 2 mM spermidine, 2 mM MgCl2, 2 mM dATP, 2 mM dTTP, 2 μM oligo primer, potential inhibitors of interest at the appropriate concentration, and 50 μCi [α^32-P]dGTP) with 20 μl of S100 enzyme extract. The reaction mixture was then incubated at 30° C. for 1 hour. The reaction was stopped by incubating sequentially with 50 μl of the stop solution (10 mM Tris pH 7.5, 20 mM EDTA, 0.1 mg/ml RNase A) and 50 μl of deproteinase solution (10 mM Tris pH 7.5, 0.5% SDS, 0.3 mg/ml Proteinase K). The mixture was extracted with 50% phenol/50% chloroform (v/v). The DNA was then precipitated by adding 2.5×volumes of cold EtOH and letting it stand overnight at −70° C. The DNAs were separated on an 8% polyacrylamide/7M urea denaturing gel at 1600 V for 1.5 hours. The gel was dried and exposed to Kodak XAR-5 film to gel in −70° C. Typical autoradiographic exposures required 3-14 days.

[4] = target: T1, human cancer telomerase; assay: Nucleoside triphosphate as telomerase substrate, dATP replaced in conventional reaction; conditions: for incorporation into telomeric ladders, replacing dATP: conventional assay, 0.125-2 mM tested; for Substrate of 293 Telomerase: dATP analogs
From the text: As described in Section 2, telomerase catalyzes the incorporation of dATP, dTTP and [α-^32P]dGTP into a (TTAGGG)3 primer. In order to determine whether dATP analog can be incorporated into telomere, native dATP in the standard telomerase reaction is replaced with various concentrations of dATP analogs. Following the reaction, telomeric products are isolated and analyzed as described in Section 2. Similarly, native dTTP in the standard telomerase reaction can be replaced by a structurally modified dTTP analog to test whether the dTTP analog can be used as a telomerase substrate.

[5] = 0.125 mM, read-out: % of Control
[6] = 0.25 mM, read-out: % of Control

T1 sequence (O14746 whole entry): as the sequence (O14746 whole entry) above
T1 sequence (O60832 whole entry partner): as the sequence (O60832 whole entry partner) above
T1 sequence (Q9NPE3 whole entry partner): as the sequence (Q9NPE3 whole entry partner) above
T1 sequence (Q9NX24 whole entry partner): as the sequence (Q9NX24 whole entry partner) above
T1 sequence (Q9NY12 whole entry partner): as the sequence (Q9NY12 whole entry partner) above

For `Nc1nc2c(ccn2[C@H]2C[C@H](O)[C@@H](COP(=O)(O)OP(=O)(O)OP(=O)(O)O)O2)c(=S)[nH]1` [Compound 8, 6-Thio-7-deaza-2′-deoxyguanosine Triphosphate], the “incorporation into telomeric ladders, replacing dGTP” value [1] was “incorporation”.

In the case of `Nc1ncnc2c1ncn2[C@H]1C[C@H](O)[C@@H](COP(=O)(O)OP(=O)(O)CP(=O)(O)O)O1` [NA004, 2′-Deoxyadenosine-5′-β,γ-Methylene Triphosphate], the “% of Control” value ([2]; 0.125 mM) is reported as 6%, the “% of Control” value ([2]; 0.25 mM) is reported as 1.7% and the “% of Control” value ([2]; 0.5 mM) is reported as 0%. The “% of Control” value ([2]; 1.0 mM) was 0%, the “% of Control” value ([2]; 2 mM) was 0% and the “Inhibition of 293 cell telomerase, modified assay” value [2] was “concentration-dependent inhibition”. The “% of Control” value ([3]; 0.125 mM) was 70%, the “% of Control” value ([3]; 0.25 mM) was 72% and the “% of Control” value ([3]; 0.5 mM) was 88%. For the same compound, the “% of Control” value ([3]; 1.0 mM) was 98%, the “% of Control” value ([3]; 2.0 mM) was 99% and the “Inhibition of 293 Telomerase, Conventional Assay *dGTP” value [3] was “No Inhibition (Up to 2 mM)”. For the same compound, the “incorporation into telomeric ladders, replacing dATP” value [4] was “incorporated” and the “Substrate of 293 Telomerase” value [4] was “Replace dATP Is a substrate No substrate inhibition”.

`Nc1ncnc2c1ncn2[C@H]1C[C@H](O)[C@@H](COP(O)(=S)OP(=O)(O)OP(=O)(O)O)O1` (some centres unmarked) [NA006, 2′-Deoxyadenosine-5′—O—(1-Thio-Triphosphate)] gave a remaining activity at 125 µM [2, 5] of 0%, a remaining activity at 250 µM [2, 6] of 0% and a remaining activity at 500 µM ([2]; 0.5 mM, read-out: % of Control) of 0%. The remaining activity at 1000 µM ([2]; 1.0 mM, read-out: % of Control) was 0%, the remaining activity at 2000 µM ([2]; 2 mM, read-out: % of Control) was 0% and the “Inhibition of 293 cell telomerase, modified assay” value [2] was “concentration-dependent inhibition”. For the same compound, the remaining activity at 125 µM [3, 5] was 120%, the remaining activity at 250 µM [3, 6] was 103% and the remaining activity at 500 µM ([3]; 0.5 mM, read-out: % of Control) was 103%. For the same compound, the remaining activity at 1000 µM ([3]; 1.0 mM, read-out: % of Control) was 100%, the remaining activity at 2000 µM ([3]; 2.0 mM, read-out: % of Control) was 113% and the “Inhibition of 293 Telomerase, Conventional Assay *dGTP” value [3] was “No Inhibition (up to 2 mM)”. For the same compound, the “incorporation into telomeric ladders, replacing dATP” value [4] was “incorporated” and the “Substrate of 293 Telomerase” value [4] was “Is a substrate No substrate inhibition”.
